Reference: patent US20240165108A1, “NOVEL USE” (GlaxoSmithKline Intellectual Property Development Limited, priority 2022, published 2024)
Values belong to the compound of their own block, whether it stands above or below them.

How the values were obtained:
human hair follicles [1] = experiment: Dermal papilla area and melanin clumping, Fontana-Masson stained ex vivo hair follicles; format: cell-based; settings: for dermal papilla area: healthy hair follicles
Method: Microscopic hair cycle staging: Hair cycle staging is performed at the end of the culture and can be determined according to several established parameters as described previously. Hair follicles are microscopically evaluated for the hair cycle staging using Masson-Fontana histochemistry and Ki-67/TUNEL immunostaining as previously described. […] Melanin clumps are indicated on the images by the orange arrows, and are counted in the Masson-fontana stained section at the end of the culture in a defined region of interest starting at the Auber's line and including the precortical hair matrix as described previously.

human hair follicles [2] = experiment: RNA sequencing of ex vivo cultured hair follicles; format: cell-based
Method: RNA extraction, sequencing and analysis were performed as follows; RNA from n=2-3 hair follicles per group was extracted using […]® PicoPure® RNA Isolation Kit (ThermoFisher) including a Dnase digestions step using the Rnase-Free Dnase Set from Qiagen and stored at −80 degrees Celsius until analysed. RNA concentration, purity and integrity were assessed before sequencing. Sequencing was performed on a NovaSeq 6000 using 2×100 bp read length with an output of approximately 30 M clusters (6 Gb per sample). Demultiplexing of the sequencing reads was performed with Illumina bcl2fastq (2.20).
Briefly, DESeq2 first creates a pseudo-reference sample (row-wise geometric mean) and calculates the ratio of each sample to this reference. Then, the normalization factor for each sample (size factor) is calculated using the median value of all ratios for a given sample. Normalized count values are created by dividing each raw count value in a given sample by that sample's normalization factor. Finally, DESeq2 calculates p values and adjusted p values for genes of two groups by allowing the shrinkage of the log 2 fold changes when the information for a gene is low (low counts or high dispersion values). For manual calculation of fold change (FC) between two groups, the ratio of the normalized read counts was used. And FC is considered relevant or significant if it is greater of equal to 2 (upregulation) or smaller that or equal to 0.5 (downregulation).

human hair follicles [3] = experiment: Versican immunofluorescence in dermal papilla of hair follicles; format: cell-based; settings: healthy hair follicles
From the text: Versican immunofluorescence (as previously described in Soma et al J Dermatol Sci 2005, doi: 10.1016/j.jdermsci.2005.03.010) was used to determine hair follicle inductive properties.

GPR91 [4] = biological target: T1, GPR91 (Homo sapiens, UniProt Q9BXA5); experiment: Succinate-stimulated secretion of PGD2 and cytokines/chemokines in LUVA cells; format: cell-based; parameters: host or cells: LUVA
T1 sequence (Q9BXA5 1-334): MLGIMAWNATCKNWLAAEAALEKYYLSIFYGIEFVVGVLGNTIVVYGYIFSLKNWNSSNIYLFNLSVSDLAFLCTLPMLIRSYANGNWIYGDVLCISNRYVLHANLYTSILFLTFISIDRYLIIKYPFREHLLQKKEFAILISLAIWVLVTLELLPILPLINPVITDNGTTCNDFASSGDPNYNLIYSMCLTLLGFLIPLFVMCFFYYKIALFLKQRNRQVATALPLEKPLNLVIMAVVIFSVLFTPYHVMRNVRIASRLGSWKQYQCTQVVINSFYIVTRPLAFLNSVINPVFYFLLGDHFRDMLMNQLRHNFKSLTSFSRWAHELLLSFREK
Method: After the incubation, the cell suspension was centrifuged, and the supernatant was collected for downstream readouts of secreted factors including Prostaglandin D2 (PGD2) by ELISA (Cayman Chemical PGD2 EIA kit), and cytokines/chemokines TNFa, MIP1a and Eotaxin-3 by MSD (Mesoscale V-Plex Plus proinflammatory panel 1, Plus Chemokine Panel 1).
A GPR91 knockout in LUVA cells (received from Kerafast Inc) was generated using CRISPR technology with a single guide following protocols known in the art. The guide RNA sequence used was […] (SEQ ID NO: 4). The guide RNA cut location was chromosome 3: 151,880,674.

human hair follicles [5] = experiment: Microscopic hair cycle staging in ex vivo hair follicle organ culture; format: cell-based; settings: for percentage of hair follicles in the anagen phase: donors with healthy hair follicles
From the text: Compounds, at the concentrations indicated, are present throughout the duration of the hair follicle culture at 0.1% DMSO.

GPR91 [6] = biological target: T1, GPR91; experiment: Calcium flux in HEK293; format: cell-based; settings: read-out: Test compound pIC50, Calcium flux in HEK293 (converted)
From the text: (§1) GPR91 inhibition can be measured according to the art. For example, GPR91 inhibition may be measured by testing a compound in a G-protein functional assay such as Calcium flux, IP1 accumulation and GTPyS. GPR91 inhibition may be measured by testing a compound in phenotypic assays which measures a cytokine response that is relevant to the indication.

GPR91 [7] = biological target: T1, GPR91; experiment: GTPyS G-protein functional assay; format: biochemical; parameters: host or cells: LUVA; settings: read-out: Test compound pIC50, GTPyS (converted)
From the text: as §1

GPR91 [8] = biological target: T1, GPR91; experiment: IP1 accumulation; format: cell-based; parameters: host or cells: LUVA; settings: read-out: Test compound pIC50, IP1 (converted)
From the text: as §1

[9] = tested on: JAK-STAT signaling pathway; experiment: STAT3/STAT5 phosphorylation in dermal papilla cells treated with oncostatin M; format: cell-based, human
Method: (§2) The downstream effects of recombinant oncostatin M was assessed by evaluating signalling pathways (such as the JAK-STAT pathway previously associated with oncostatin M induced senescence in mouse [Wang 2019, PMID 30930146]) and markers associated with senescence to link specific mediators in the macrophage secretome (like oncostatin M) to disease relevant mechanisms. Dermal papilla cells in culture were treated with recombinant oncostatin M protein from BioLegend. Tofacitinib was received from MedChemExpress as a ready-made 10 mM solution and used at the indicated concentration.
Protein quantification: protein was extracted after lysis with RIPA buffer and quantified by BCA using methods known in the art. Protein was loaded onto a gel and run with NuPage MES SDS running buffer and transferred onto nitrocellulose membrane using the iBlot2 according to manufacturer's instructions and procedures known in the art. The following primary antibodies were used to assess expression of the relative proteins described: Human anti-Total STAT5 antibody, Isotype (Rabbit polyclonal IgG) from Abcam, Human anti-Phospho STAT5 antibody, Isotype (Rabbit polyclonal IgG) from Abcam, Anti-Human total STAT3 (D3Z2G) from Cell Signaling Technologies, Anti-Human pSTAT3 (Y705) (D3A7) from Cell Signaling Technologies and the control antibody, β-Actin (8H10D10) Mouse IgG2b mAb from Cell Signaling Technologies. […]

[10] = tested on: human iPSC derived M2 macrophages; settings: succinate present during macrophage polarization
Method: IPSC precursor cells were differentiated into macrophages using differentiation media known in the art followed by polarisation into M1 and M2 macrophage phenotypes using LPS+IFNg and IL4+IL13 stimulation, respectively.
The TREM2 primer probe set used to determine expression levels was purchased from ThermoFisher (Hs01003898_m1). Relative expression (AU: Arbitrary units) was calculated using 2^−dCT, where dCT is calculated as CT (TREM2)−CT(Housekeeper Gene). In these experiments, the housekeeper gene used was RPLP0 (ribosomal phosphoprotein PO) (Primer Probe purchased from ThermoFisher Assay ID: He00420895_gH).

dermal papilla cells [11] = tested on: dermal papilla cells
Method: iPSC were differentiated and polarized to an M2 like macrophage phenotype as previously described. […] Media was collected from the treated iPSC after 48 hours of incubation, which is referred to as conditioned media. The dermal papilla from both male and female donors were plated at 5K cells/well onto a collagen coated E-Plate and analysed using the XCELLIGENCE® platform according to the manufacturer's instructions. The cells are analysed in the machine for 24 hours to determine adherence to the plate and establishment of baseline measurements. After 24 hours, the media is aspirated, and macrophage conditioned media is added to the cells for up to 117 hours and the effects of the GPR91 dependent iPSC secretome on dermal papilla proliferation are analyzed.

[12] = tested on: hair matrix keratinocytes; settings: hair follicles from healthy donors
Method: Hair follicle organ cultures ex vivo: Full length hair follicles were micro dissected from scalp skin or FUEs as above.
Quantitative evaluation of hair matrix keratinocyte proliferation and apoptosis is performed in Ki-67/TUNEL stained sections of the hair follicle. The germinative hair matrix keratinocyte proliferation is calculated as the percentage of KI-67 positive nuclei. Intra-follicular apoptosis is analyzed using TUNEL staining (TdT-mediated dUTP-biotin nick end labelling) as described previously.

GPR91 [13] = biological target: T1, GPR91; settings: TREM2 expressing M2 macrophages, succinate for 48 hr
Method: Oncostatin M levels were determined by ELISA (Abcam ab215543) according to the manufacturer's instructions.
Oncostatin M levels were determined by ELISA according to the manufacturer's instructions. […] Supernatants were collected and Oncostatin M levels were measured.

dermal papilla cells [14] = experiment: FGF18 and BMP6 gene expression in dermal papilla cells (RT-qPCR); format: cell-based, human; settings: oncostatin M 10 ng/ml and 100 ng/ml
Method: as §2
Gene expression: mRNA was extracted as previously described in example 1. […] The following Taqman probes were used to identify target specific mRNA transcripts: FGF18 (Assay ID: Hs00826077_m1), and BMP6 (Assay ID: Hs01099594_m1).

dermal papilla cells [15] = experiment: Beta galactosidase activity (senescence) in dermal papilla; format: cell-based, human
Method: as §2
Beta Galactosidase Activity: A B-Galactosidase Activity Assay Kit (Fluorescence, Plate-Based) from Cell Signalling Technology #23833 was used to assess cellular senescence. The instructions were followed according to the manufacturer's instructions.

[16] = affected scalp regions, 5 nM, 24 hours
[17] = LUVA cells, compound 1 hr prior to succinate stimulation, read-out: Test compound pIC50, MIP-1a (converted)
[18] = healthy hair follicles after succinate
[19] = LUVA cells, succinate 3 hours, MSD

Test compound pIC50, PGD2 (GPR91 [4]; LUVA cells, compound 1 hr prior to succinate stimulation): 7.6 | IC50 (GPR91 [4]; [17]): 79.4 nM | IC50 (GPR91 [6]): 39.8 nM | IC50 (GPR91 [7]): 31.6 nM | IC50 (GPR91 [8]): 100 nM
Compound: CN1CCN(Cc2ccc(-c3cccc(C(=O)Nc4ccccc4CC(=O)O)c3)cc2)CC1 [Compound 1, 2-(2-(4′-((4-methylpiperazin-1-yl)methyl)-[1,1′-biphenyl]-3-carboxamido)phenyl)acetic acid]
size of the dermal papilla area, representative images (human hair follicles [1]; 5 uM and 50 uM): increased size of the dermal papilla area | dermal papilla area, AGA (human hair follicles [1]; AGA hair follicles, affected/balding region of the scalp): increases the dermal papilla area | dermal papilla area (human hair follicles [1]): increases the dermal papilla area | genes of apoptotic processes, cell chemotaxis and immune function (human hair follicles [2]; [16]): significant downregulation in genes that play a role in apoptotic processes, cell chemotaxis and immune function | genes related to metabolic processes and biosynthesis of macromolecules (human hair follicles [2]; [16]): increase in genes related to increased metabolic processes and biosynthesis of macromolecules | hair keratins gene expression (human hair follicles [2]; [16]): significant upregulation in hair keratins | versican expression in the dermal papilla (human hair follicles [3]): Increased versican expression | percentage of hair follicles in the anagen phase (human hair follicles [5]): increases the percentage of hair follicles in the anagen phase

IC50 (GPR91 [4]; [17]): 1000 nM | IC50 (GPR91 [4]; LUVA cells, compound 1 hr prior to succinate stimulation, read-out: Test compound pIC50, PGD2 (converted)): 63.1 nM | IC50 (GPR91 [6]): 25.1 nM | IC50 (GPR91 [7]): 1260 nM | IC50 (GPR91 [8]): 7940 nM
Compound: O=C(CCCc1ccc2cccnc2n1)NCc1cc(-c2ccc(F)c(C(F)(F)F)c2)no1 [Compound 2, N-[{3-(3-trifluoromethyl-4-fluorophenyl)isoxazol-5-yl}methyl]-4-([1,8]naphthyridin-2-yl)butyramide]
percentage of hair follicles in the anagen phase (human hair follicles [5]): increases the percentage of hair follicles in the anagen phase

Compound: C[C@@H]1CCN(C(=O)CC#N)C[C@@H]1N(C)c1ncnc2[nH]ccc12 [Tofacitinib, reference compound]
oncostatin M induced phosphorylation of STAT3 and STAT5 ([9]; JAK inhibitor co-treatment): can be blocked

Compound: O=C([O-])CCC(=O)[O-].[Na+].[Na+] [Succinate, Sodium succinate]
dermal papilla area (human hair follicles [1]): decreased size of the dermal papilla area | TREM2 expression [10]: higher levels of expression of TREM2 | genes related to immune activation (cytokine and chemokine response) (human hair follicles [2]; [18]): increase in genes related to immune activation | genes that regulate hair follicle pathways and keratins (human hair follicles [2]; [18]): significant downregulation in genes that regulate hair follicle pathways | TNFa and MIP-1a response to succinate in GPR91 knockout (GPR91 [4]; GPR91 knockout LUVA cell line, 3 hr and 72 hour): lack of response | TNFa and MIP-1a response to succinate (GPR91 [4]; LUVA cells, 3 hr and 72 hour post succinate addition): robust TNFa and MIP-1a response | Succinate control pEC50, MIP-1a (GPR91 [4]; [19]): 3.4 | Succinate control pEC50, TNF-α (GPR91 [4]; [19]): 4.2 | Succinate control pEC50, PGD2 (GPR91 [4]; LUVA cells, succinate 3 hours, PGD2 ELISA): 3.5 | dermal papilla proliferation with conditioned media of succinate treated macrophages (dermal papilla cells [11]; 3 mM succinate, male and female donors): inhibit dermal papilla proliferation | dermal papilla proliferation, succinate by itself (dermal papilla cells [11]; direct treatment of dermal papilla cells): does not induce any changes in the proliferation of dermal papilla cells | percentage of hair follicles in the catagen phase (human hair follicles [5]; GPR91 activation by succinate): increases the percentage of hair follicles in the catagen phase | toxicity to hair follicles (human hair follicles [5]; at high concentrations): highly toxic to hair follicles | hair matrix keratinocyte proliferation [12]: reduces hair matrix keratinocyte proliferation | apoptosis ([12]; TUNEL): increases apoptosis | oncostatin M secretion (GPR91 [13]): secrete higher levels of oncostatin M

Compound: oncostatin M: recombinant oncostatin M protein from BioLegend; cytokine shown to induce hair follicle quiescence in mice
expression of BMP6 (dermal papilla cells [14]): downregulates expression of BMP6 | expression of FGF18 (dermal papilla cells [14]): increases the expression of FGF18 | senescence, β-galactosidase activity (dermal papilla cells [15]): induces senescence | JAK-STAT signaling, phosphorylation of STAT3 and STAT5 ([9]; recombinant oncostatin M applied to dermal papilla): activates the JAK-STAT signaling pathway
